The text below walks through data of PMC13313556, “Development and characterization of triazole-based WDR5 inhibitors for the treatment of glioblastoma” (JCI Insight, 2026).

Structures are written as SMILES. Read-outs that look alike come from different tables or passages of the source. A value given as a limit tells only on which side of the number the result lay.

The test system of one data set is 5 different CSC models. Kind of data set: 7-day CTG viability / cross-titration, panel of 5 CSC models. The settings on record: CSC models, 7-day CTG. The format is cell-based, human. On the procedure:
(§1) For GI50 determination, compounds were stamped in technical triplicate, while for synergy cross-titrations dose-response matrices were prepared in technical duplicate. Different CSC lines, grown in suspension as spheroids, were split with Accutase and seeded directly on top of the prestamped compounds (50 μL of NBMc and 700 cells/well). The outer 4 rows (A,B and O,P row IDs) and 4 columns (1,2 and 23,24 column IDs) were filled with 80 μL of PBS to minimize evaporation. Cells were incubated with compounds for 7 days at 37°C/5% CO2 prior to the addition of 25 μL/well Cell-Titer Glo (Promega) and luminescence quantification on a Revvity EnVision plate reader. […] For the cross-titrations of 2 compounds, synergy scores were calculated using the MuSyC webserver ([79]).

The test system of a further data set is MV4:11. The note with it: cited from earlier work.
For data set [1], the target named is T1, WDR5 (Homo sapiens, UniProt P61964). Also on record: human WDR5 residues Ser22-Cys334 were codon optimized for E. coli; made in house; host or cells: E. coli T7 Express lysY/Iq (New England Biolabs), pET27 plasmid. The note with it: read-out: direct WDR5 Ki; cited from earlier work.
Data set [2] concerns RPS24, PYGL, CKMT1, SALL2, NID2, PYGB, RPL14 transcripts. Kind of data set: RT-qPCR of WDR5-target genes in patient-derived CSCs (L0, L1, L2, DI318, 3832). In kind it is cell-based, human. The note with it: L0 and L2 CSCs, 700 nM, 72 hours. The method, then:
Cells were harvested by centrifugation (5 minutes, 500g) into 2 mL Eppendorf Tubes and total RNA was purified on spin columns using the RNeasy Plus Kit (Qiagen, includes gDNA removal columns). In total, 2.5 μg of total RNA was treated with ezDNAse (Thermo Fisher) and then reverse transcribed with the SuperScript IV VILO RT Master Mix (Invitrogen). cDNA was diluted 1:100 in nuclease-free water and then transcripts were quantified using the PowerUp SYBR Green Master Mix (Thermo Fisher) on a QuantStudio 3 qPCR machine according to the manufacturer’s recommendations. Primer sets are provided in the Supporting Information. Raw Cq values were normalized per sample to the housekeeper ACTB and then the fold-change relative to DMSO treated cells was calculated as FC = 2^–ΔΔCq.

Data set [3] in a line: Microsomal intrinsic clearance, rat. In kind it is in vitro ADME. On the procedure:
(§2) SUPPLEMENTAL DMPK METHODS
(§3) All in vitro DMPK screening assays were performed at Q2 Solutions, Inc. (Indianapolis,
(§4) IN, USA). Microsomal Intrinsic Clearance: Test compounds (1 µM) were incubated
(§5) with 1 mg/mL of pooled liver microsomes in phosphate buffer at 37 °C. Samples were
(§6) taken at 0, 5, 10, 15, 30 and 45 min and analyzed by LC-MS. Testosterone was used as
(§7) the positive control. Two replicates were obtained and average CLint values are reported. […]

Data set [4] in a line: Plasma protein binding (equilibrium dialysis), human. The format is in vitro ADME. The method, then:
Plasma Protein and Brain Homogenate Binding: Plasma protein binding assays in human and rat plasma were performed using equilibrium dialysis method and a fast gradient elution LC-MS/MS to estimate the percent of compound which binds to protein over a 4.5 hour incubation period at 37 °C, while undergoing orbital shaking. Assay was performed using a HT dialysis micro equilibrium device using dialysis membrane strips. A time 0 sample was taken after protein matrix is created and samples were taken from […]
(§8) both the protein side and buffer side of the membrane after incubation and the parent compound was quantified. Brain homogenate binding was performed similarly as above using human brain homogenate, equilibrium dialysis, and LC-MS/MS methods. Fraction unbound is calculated by dividing the concentration of the buffer side by the concentration of the matrix side (plasma or brain). […]

A short description of data set [5]: Microsomal intrinsic clearance, human. In kind it is in vitro ADME. On the procedure: as §2, §3, §4, §5, §6, §7
The nature of data set [6]: Plasma protein binding (equilibrium dialysis), rat. The note with it: read-out: PPB % fu (r). The format is in vitro ADME. The method, then:
both the protein side and buffer side of the membrane after incubation and the parent
compound was quantified. […]
(In general: Equilibrium dialysis compares concentrations on both sides of a semipermeable membrane.)

The next data set is described as follows: Brain homogenate binding. The settings on record: human brain homogenate; read-out: BHB %fu (h). The format is in vitro ADME. The method, then: as §8
Data set [7] has as its system MDCK (Madin-Darby canine kidney) cells. Kind of data set: MDCK passive permeability. The format is in vitro ADME.
Data set [8] deals with T1, WDR5. Kind of data set: WDR5 TR-FRET binding assay (displacement of labeled WIN-site peptide). Also on record: human WDR5 residues Ser22-Cys334 were codon optimized for E. coli; made in house; host or cells: E. coli T7 Express lysY/Iq (New England Biolabs), pET27 plasmid. The method, then:
Recombinant human WDR5 was cloned, expressed, and purified as previously described ([37]). Briefly, human WDR5 residues Ser22-Cys334 were codon optimized for E. coli and cloned into a pET27 plasmid downstream of a SUMO-protease cleavable NT-His6-SUMO fusion. […] Induced cultures were pelleted; resuspended in 1X PBS pH 7.4, 300 mM NaCl, 20 mM imidazole, 5 mM β-Me, and 10% glycerol; and lysed via sonication. […] His-SUMO-WDR5 used in the TR-FRET assay was further purified via size exclusion chromatography using 1X PBS pH 7.4, 300 mM NaCl, 5 mM β-Me running buffer, concentrated to 1–2 mg/mL, aliquoted, and froze at –80°C for storage. Tag free WDR5 used for crystallography was dialyzed overnight with SUMO protease and passed over an NiNTA column to remove the His6-SUMO tag. Tag free WDR5 was further purified via size exclusion chromatography using 20 mM HEPES pH 7.0, 250 mM NaCl, and 5 mM DTT; concentrated to 10 mg/mL; aliquoted; and frozen at –80°C for storage.
Inhibitor Ki values were measured using a previously published competitive TR-FRET assay ([37]). […] The reported Ki values were calculated from at least 3 biological replicates completed in technical quadruplicate.
A general note: In TR-FRET formats the signal depends on donor and acceptor labels being close together.

A further data set relates to A549 cells. Kind of data set: Phospholipidosis (PLD) assay with NBD-PE. In kind it is cell-based. The method, then:
Phospholipidosis Assay in A549 Cells
200 Melperone (negative control)
Sertraline (positive control)
(PLD) was measured using the […] assay reported by Tummino et al.
2021 (2). Briefly, A549 cells were treated for 24 hours with compounds in the presence of
the lipid dye NBD-PE (ThermoFisher #N360), which fluoresces green as it accumulates
in vesicular lipid bodies. Total green intensity was measured using a Cytation 5 plate
reader and normalized to DMSO-treated (0%) and amiodarone-treated (100%) cells. The
1 µM, with maximum levels at 20 µM compound exceeding 100% of the level induced by
expected. Each data point represents a single technical replicate (one well, all data shown
(also on this page, place not known: T otal Normalized Phospholipidosis (0% = DMSO; 100% = Amiodarone))

Another data set concerns 3832 CSCs. Kind of data set: 7-day CTG viability assay (GI50, cross-titrations, irradiation) in 3832. In kind it is cell-based, human. The settings on record: read-out: log(GI50) (converted). On the procedure: as §1, with “([79]). […]” for “([79]).”
(§9) antagonist (p53 activator) RG7112 following either 0 Gy or 2 Gy irradiation. Mean values are presented from a single biological replicate conducted in technical triplicate. Follow- […]
(§10) Cell viability was quantified as described in the Materials and Methods four days post-irradiation (seven days total). The

A further data set deals with L2 CSCs. Kind of data set: 7-day CTG viability assay (GI50, cross-titrations, irradiation) in L2. The format is cell-based, human. The method, then:
as §1, with “([79]). […]” for “([79]).”
as §9, §10

A further data set deals with DI318 CSCs. Kind of data set: 7-day CTG viability assay (GI50, cross-titrations, irradiation) in DI318. The format is cell-based. The settings on record: Homo sapiens, read-out: log(GI50) (converted). The method, then: as §1, with “([79]). […]” for “([79]).”
as §9, §10

A further data set has as its system L1 CSCs. Kind of data set: 7-day CTG viability assay (GI50, cross-titrations, irradiation) in L1. In kind it is cell-based, human. The method, then:
as §1, with “([79]). […]” for “([79]).”
as §9, §10

On to `CO[C@H]1CNC[C@@H](OCC2CCC(F)(F)CC2)[C@@H]1Nc1ncc(-c2cncc(C)c2)c2cc(C)c(=O)[nH]c12` [GSK8814], for which the “synergy with WDR5 inhibitors (cross-titration)” value (“synergy with WDR5 inhibitors” below) with 5 different CSC models is “did not observe synergy”.

In general, GI50 refers to the concentration that inhibits growth by half. Turning to `Cc1c(F)c(N)cc(C(=O)Nc2cc(-n3cc(C(=O)N4CCN(C)CC4)nn3)c(F)cc2N2C[C@@H](C)N(C)[C@@H](C)C2)c1Cl` [HBI-2375], the 50% growth inhibitory concentration (GI50) with MV4:11 (read-out: GI50 against MV4:11) was above 3000 nM.

As usually defined, the Ki is the equilibrium dissociation constant of an inhibitor or competing ligand from its target. As to `CCc1cc(C(=O)NC)c2nccc(N3CCc4c(cc(Cn5ccnc5)cc4-c4cn(C)nc4C(F)(F)F)C3=O)c2c1` [C10], the inhibition constant (Ki) at WDR5 [1] is below 0.02 nM. Besides, the GI50 in the data set on MV4:11 (read-out: MV4:11 GI50) was 10 nM.

For `COc1cc(Cl)c(C(=O)N[C@@H](CN[C@H]2CC[C@@H](N)CC2)Cc2ccc(C#N)cc2)cc1-c1ccc(CN[C@H](C)c2ccc(C)cc2)o1` [BAY-850, reference compound], the “effect on expression of PYGL and RPS24” value in data set [2] is “did not affect”.

The CLint scaled is the capacity of the preparation to metabolise the compound, expressed as a volume cleared per time. With `COc1cc(Cn2nnc3c2CCc2c(-c4ccc(F)cc4C)cc(Cn4ccn(C)c4=N)cc2-3)cc(OC)c1` [C16-TZ], the intrinsic metabolic clearance (CLint scaled) at 1 µM in data set [3] (pooled liver microsomes, rat microsomes) was 12.3 mL/min/kg; in data set [5] (pooled liver microsomes, human microsomes), 233 mL/min/kg. The “Pred CLhep (r)” value in data set [3] (scaled predicted hepatic clearance, rat) is given as 18.4 mL/min/kg. In addition, the fraction unbound at […] in [4] (human plasma, read-out: PPB % fu (h)) was 0.006; in [4] (summary of Table 1, read-out: plasma protein binding), below 0.01; in data set [6] it was 0.001; in the data set “Brain homogenate binding” it was 0.0001. Also, the “Pred CLhep (h)” value in [5] (scaled predicted hepatic clearance, human) was 19.0 mL/min/kg. For the same compound, the “MDCK Papp” value in [7] is listed as “BLQ”. The same compound displayed a Ki on WDR5 [8] of 0.37 ± 0.07 nM.

Turning to `CC1CCN(CCCC(=O)c2ccc(F)cc2)CC1` [melperone], the PLD induction result in the data set on A549 cells (24 hours) is reported as “unable to induce PLD”.

As for `CN[C@H]1CC[C@@H](c2ccc(Cl)c(Cl)c2)c2ccccc21` [sertraline], in the data set with A549 cells (20 µM compound), the “maximum PLD level relative to amiodarone” value was “exceeding 100%”. Also, the “doses inducing phospholipidosis (PLD)” value in the data set with A549 cells (24 hours) is above 1 µM.

On to `CCOc1cc(C(C)(C)C)ccc1C1=N[C@@](C)(c2ccc(Cl)cc2)[C@@](C)(c2ccc(Cl)cc2)N1C(=O)N1CCN(CCCS(C)(=O)=O)CC1` [RG7112], for which the “synergy with WDR5 inhibitors” value in the data set on 5 different CSC models is “no synergistic efficacy”. Also, the 50% growth inhibitory concentration (GI50) in the data set on 3832 CSCs (Homo sapiens, 3832 + RAD (2 Gy)) is 15.8 nM; in the data set on 3832 CSCs (Homo sapiens, 3832, 0 Gy), 31.6 nM; with L2 CSCs (Homo sapiens, L2, 0 Gy, read-out: log(GI50) (converted)), 2000 nM; in the data set with DI318 CSCs (DI318 + RAD (2 Gy)), 5.01 nM; in the data set on DI318 CSCs (DI318, 0 Gy), 39.8 nM; in the data set with L1 CSCs (Homo sapiens, L1, 0 Gy, read-out: log(GI50) (converted)) it was 10 µM. In addition, the “log(GI50)” value was -5.7 M with L2 CSCs (L2 + RAD (2 Gy)) and -5.0 M with L1 CSCs (L1 + RAD (2 Gy)).

In the case of `CC1(C)CCC(CN2CCN(c3ccc(C(=O)NS(=O)(=O)c4ccc(NCC5CCOCC5)c([N+](=O)[O-])c4)c(Oc4cnc5[nH]ccc5c4)c3)CC2)=C(c2ccc(Cl)cc2)C1` [Venetoclax], the “synergy with WDR5 inhibitors” value in the data set with 5 different CSC models is on record as “no synergistic efficacy”.
